Legend:
[1] = tested on: Spleen; test: Biodistribution in ddY mouse spleen at 4.8 MBq/0.1 mL after 60 mins by gamma counting; type: ADME, organism-based; conditions: in vivo, 1 h
[2] = organism: Mus musculus; test: Biodistribution in ddY mouse large intestine at 4.8 MBq/0.1 mL after 15 mins by gamma counting; type: ADME, organism-based; conditions: in vivo, 0.25 h
[3] = tested on: Pancreas; test: Biodistribution in ddY mouse pancreas at 4.8 MBq/0.1 mL after 90 mins by gamma countingeas; type: ADME, organism-based; conditions: in vivo, 1.5 h
[4] = Metabolic stability in Sprague-Dawley plasma assessed as unchanged drug level at 37 MBq/0.1 mL, iv after 60 mins; type: ADME, organism-based; conditions: rat, read-out: Stability
[5] = organism: Mus musculus; test: Biodistribution in ddY mouse small intestine at 4.8 MBq/0.1 mL after 60 mins by gamma counting; type: ADME, organism-based; conditions: in vivo, 1 h
[6] = tested on: Kidney; test: Biodistribution in ddY mouse kidney at 4.8 MBq/0.1 mL after 15 mins by gamma counting; type: ADME, organism-based; conditions: in vivo, 0.25 h
[7] = organism: Mus musculus; test: Biodistribution in ddY mouse testis at 4.8 MBq/0.1 mL after 90 mins by gamma counting; type: ADME, organism-based; conditions: in vivo, 1.5 h
[8] = Drug uptake in monkey cerebellum at 185 to 220 MBq, iv after 20 mins by PET analysis; type: ADME, organism-based, Macaca mulatta; conditions: rhesus monkey, in vivo
[9] = tested on: Brain; test: Biodistribution in ddY mouse brain at 4.8 MBq/0.1 mL after 1 min by gamma counting; type: ADME, organism-based; conditions: in vivo
[10] = tested on: Lung; test: Biodistribution in ddY mouse lung at 4.8 MBq/0.1 mL after 15 mins by gamma counting; type: ADME, organism-based; conditions: in vivo, 0.25 h
[11] = tested on: Pancreas; test: Biodistribution in ddY mouse pancreas at 4.8 MBq/0.1 mL after 60 mins by gamma countingeas; type: ADME, organism-based; conditions: in vivo, 1 h
[12] = Metabolic stability in Sprague-Dawley brain assessed as unchanged drug level at 37 MBq/0.1 mL, iv after 60 mins; type: ADME, organism-based; conditions: rat, read-out: Stability
[13] = tested on: Pancreas; test: Biodistribution in ddY mouse pancreas at 4.8 MBq/0.1 mL after 5 mins by gamma countingeas; type: ADME, organism-based; conditions: in vivo
[14] = tested on: Heart; test: Biodistribution in ddY mouse heart at 4.8 MBq/0.1 mL after 15 mins by gamma counting; type: ADME, organism-based; conditions: in vivo, 0.25 h
[15] = tested on: Spleen; test: Biodistribution in ddY mouse spleen at 4.8 MBq/0.1 mL after 1 min by gamma counting; type: ADME, organism-based; conditions: in vivo
[16] = Drug uptake in monkey cingulate cortex at 185 to 220 MBq, iv after 20 mins by PET analysis; type: ADME, organism-based, Macaca mulatta; conditions: rhesus monkey, in vivo
[17] = tested on: Kidney; test: Biodistribution in ddY mouse kidney at 4.8 MBq/0.1 mL after 90 mins by gamma counting; type: ADME, organism-based; conditions: in vivo, 1.5 h
[18] = tested on: Kidney; test: Biodistribution in ddY mouse kidney at 4.8 MBq/0.1 mL after 1 min by gamma counting; type: ADME, organism-based; conditions: in vivo
[19] = Drug uptake in monkey pons assessed as distribution volume ratio at 185 to 220 MBq, iv after 10 to 90 mins by PET analysis; type: ADME, organism-based, Macaca mulatta; conditions: rhesus monkey, in vivo
[20] = Metabolic stability in Sprague-Dawley brain assessed as unchanged drug level at 37 MBq/0.1 mL, iv after 30 mins; type: ADME, organism-based; conditions: rat, read-out: Stability
[21] = organism: Mus musculus; test: Biodistribution in ddY mouse testis at 4.8 MBq/0.1 mL after 15 mins by gamma counting; type: ADME, organism-based; conditions: in vivo, 0.25 h
[22] = tested on: Brain; test: Biodistribution in ddY mouse brain at 4.8 MBq/0.1 mL after 15 mins by gamma counting; type: ADME, organism-based; conditions: in vivo, 0.25 h
[23] = Metabolic stability in Sprague-Dawley brain assessed as unchanged drug level at 37 MBq/0.1 mL, iv after 15 mins; type: ADME, organism-based; conditions: rat, read-out: Stability
[24] = organism: Mus musculus; test: Biodistribution in ddY mouse small intestine at 4.8 MBq/0.1 mL after 90 mins by gamma counting; type: ADME, organism-based; conditions: in vivo, 1.5 h
[25] = tested on: Spleen; test: Biodistribution in ddY mouse spleen at 4.8 MBq/0.1 mL after 5 mins by gamma counting; type: ADME, organism-based; conditions: in vivo
[26] = organism: Mus musculus; test: Biodistribution in ddY mouse small intestine at 4.8 MBq/0.1 mL after 30 mins by gamma counting; type: ADME, organism-based; conditions: in vivo, 0.5 h
[27] = organism: Mus musculus; test: Biodistribution in ddY mouse testis at 4.8 MBq/0.1 mL after 30 mins by gamma counting; type: ADME, organism-based; conditions: in vivo, 0.5 h
[28] = tested on: Muscle tissue; test: Biodistribution in ddY mouse muscle at 4.8 MBq/0.1 mL after 15 mins by gamma counting; type: ADME, organism-based; conditions: in vivo, 0.25 h
[29] = tested on: Blood; test: Biodistribution in ddY mouse blood at 4.8 MBq/0.1 mL after 90 mins by gamma counting; type: ADME, organism-based; conditions: in vivo, 1.5 h
[30] = tested on: Liver; test: Biodistribution in ddY mouse liver at 4.8 MBq/0.1 mL after 30 mins by gamma counting; type: ADME, organism-based; conditions: in vivo, 0.5 h
[31] = Drug uptake in monkey thalamus at 185 to 220 MBq, iv after 10 to 60 mins by PET analysis; type: ADME, organism-based, Macaca mulatta; conditions: rhesus monkey, in vivo
[32] = Drug uptake in monkey caudate assessed as distribution volume ratio at 185 to 220 MBq, iv after 10 to 90 mins by PET analysis; type: ADME, organism-based, Macaca mulatta, Caudate nucleus; conditions: rhesus monkey, in vivo
[33] = tested on: Heart; test: Biodistribution in ddY mouse heart at 4.8 MBq/0.1 mL after 90 mins by gamma counting; type: ADME, organism-based; conditions: in vivo, 1.5 h
[34] = organism: Mus musculus; test: Biodistribution in ddY mouse large intestine at 4.8 MBq/0.1 mL after 5 mins by gamma counting; type: ADME, organism-based; conditions: in vivo
[35] = tested on: Pancreas; test: Biodistribution in ddY mouse pancreas at 4.8 MBq/0.1 mL after 15 mins by gamma countingeas; type: ADME, organism-based; conditions: in vivo, 0.25 h
[36] = tested on: Brain; test: Biodistribution in ddY mouse brain at 4.8 MBq/0.1 mL after 5 mins by gamma counting; type: ADME, organism-based; conditions: in vivo
[37] = tested on: Heart; test: Biodistribution in ddY mouse heart at 4.8 MBq/0.1 mL after 1 min by gamma counting; type: ADME, organism-based; conditions: in vivo
[38] = tested on: Kidney; test: Biodistribution in ddY mouse kidney at 4.8 MBq/0.1 mL after 60 mins by gamma counting; type: ADME, organism-based; conditions: in vivo, 1 h
[39] = tested on: Blood; test: Biodistribution in ddY mouse blood at 4.8 MBq/0.1 mL after 1 min by gamma counting; type: ADME, organism-based; conditions: in vivo
[40] = Drug uptake in monkey putamen at 185 to 220 MBq, iv after 10 mins by PET analysis; type: ADME, organism-based, Macaca mulatta; conditions: rhesus monkey, in vivo
[41] = tested on: Hippocampus; test: Drug uptake in monkey hippocampus at 185 to 220 MBq, iv after 10 mins by PET analysis; type: ADME, organism-based, Macaca mulatta; conditions: rhesus monkey, in vivo
[42] = Drug uptake in monkey cerebellum assessed as distribution volume ratio at 185 to 220 MBq, iv after 10 to 90 mins by PET analysis; type: ADME, organism-based, Macaca mulatta; conditions: rhesus monkey, in vivo
[43] = tested on: Spleen; test: Biodistribution in ddY mouse spleen at 4.8 MBq/0.1 mL after 90 mins by gamma counting; type: ADME, organism-based; conditions: in vivo, 1.5 h
[44] = tested on: Blood; test: Biodistribution in ddY mouse blood at 4.8 MBq/0.1 mL after 60 mins by gamma counting; type: ADME, organism-based; conditions: in vivo, 1 h
[45] = tested on: Kidney; test: Biodistribution in ddY mouse kidney at 4.8 MBq/0.1 mL after 30 mins by gamma counting; type: ADME, organism-based; conditions: in vivo, 0.5 h
[46] = tested on: Spleen; test: Biodistribution in ddY mouse spleen at 4.8 MBq/0.1 mL after 30 mins by gamma counting; type: ADME, organism-based; conditions: in vivo, 0.5 h
[47] = tested on: Muscle tissue; test: Biodistribution in ddY mouse muscle at 4.8 MBq/0.1 mL after 90 mins by gamma counting; type: ADME, organism-based; conditions: in vivo, 1.5 h
[48] = tested on: Muscle tissue; test: Biodistribution in ddY mouse muscle at 4.8 MBq/0.1 mL after 1 min by gamma counting; type: ADME, organism-based; conditions: in vivo
[49] = tested on: Spleen; test: Biodistribution in ddY mouse spleen at 4.8 MBq/0.1 mL after 15 mins by gamma counting; type: ADME, organism-based; conditions: in vivo, 0.25 h
[50] = Drug uptake in monkey putamen assessed as distribution volume ratio at 185 to 220 MBq, iv after 10 to 90 mins by PET analysis; type: ADME, organism-based, Macaca mulatta; conditions: rhesus monkey, in vivo

CC(C)Nc1cc(-c2csc(N(C)C(=O)c3ccc([14CH3])cc3)n2)ncn1
Drug uptake [1]: 0.02 % ID/g
Drug uptake [2]: 1.2 % ID/g
Drug uptake [3]: 0.04 % ID/g
remaining at 1 h [4]: 33.9%
Drug uptake [5]: 17.46 % ID/g
Drug uptake [6]: 1.32 % ID/g
Drug uptake [7]: 0.14 % ID/g
SUV [8]: 1.2
Drug uptake [9]: 2.19 % ID/g
Drug uptake [10]: 0.86 % ID/g
Drug uptake [11]: 0.03 % ID/g
remaining at 1 h [12]: 98.2%
Drug uptake [13]: 1.23 % ID/g
Drug uptake [14]: 0.27 % ID/g
Drug uptake [15]: 1.74 % ID/g
SUV [16]: 0.9
Drug uptake [17]: 0.11 % ID/g
Drug uptake [18]: 11.12 % ID/g
Ratio [19]: 1
remaining at 0.5 h [20]: 97%
Drug uptake [21]: 0.41 % ID/g
Drug uptake [22]: 1.99 % ID/g
remaining at 0.25 h [23]: 95.2%
Drug uptake [24]: 7.09 % ID/g
Drug uptake [25]: 0.93 % ID/g
Drug uptake [26]: 16.53 % ID/g
Drug uptake [27]: 0.22 % ID/g
Drug uptake [28]: 0.23 % ID/g
Drug uptake [29]: 0.02 % ID/g
Drug uptake [30]: 1.43 % ID/g
Drug uptake [31]: Active
Ratio [32]: 1.5
Drug uptake [33]: 0.01 % ID/g
Drug uptake [34]: 1.03 % ID/g
Drug uptake [35]: 0.3 % ID/g
Drug uptake [36]: 2.58 % ID/g
Drug uptake [37]: 4.93 % ID/g
Drug uptake [38]: 0.22 % ID/g
Drug uptake [39]: 3.09 % ID/g
Drug uptake [40]: Active
Drug uptake [41]: Active
Ratio [42]: 4.3
Drug uptake [43]: 0.02 % ID/g
Drug uptake [44]: 0.05 % ID/g
Drug uptake [45]: 0.56 % ID/g
Drug uptake [46]: 0.07 % ID/g
Drug uptake [47]: 0.17 % ID/g
Drug uptake [48]: 2.59 % ID/g
Drug uptake [49]: 0.29 % ID/g
Ratio [50]: 1.5
